Laboratory results taken from patent US20040229848A1, “Glutaminyl based DP IV-inhibitors” (priority 2003, published 2004).
Like-named read-outs stand apart in the source and are kept apart here.

Columns and labels:
[1] = target: human QC (Homo sapiens, UniProt Q16769); test: Inhibition of the human QC (glutaminyl cyclase) catalyzed reaction, Ki determination
Procedure: Excitation/emission wavelengths were 320/410 nm. The assay reactions were initiated by addition of glutaminyl cyclase.
Reactions were carried out at 30° C. utilizing the NOVOStar reader for microplates (BMG labtechnologies). […] Excitation/emission wavelengths were 380/460 nm. The assay reactions were initiated by addition of glutaminyl cyclase. […] The kinetic data were evaluated using GraFit software.
The initial velocities were evaluated and the enzymatic activity was determined from a standard curve of ammonia under assay conditions. All samples were measured at 30° C., using either the [sequence]luor Plus or the Sunrise (both from TECAN) reader for microplates. Kinetic data was evaluated using GraFit software.
For inhibitor testing, the sample composition was the same as described above, except of the putative inhibitory compound added. […] For detailed investigations of the inhibition and determination of Ki-values, influence of the inhibitor on the auxiliary enzymes was investigated first.

[2] = target: glutaminyl cyclase (QC) (Homo sapiens, UniProt Q16769)
Procedure: (§1) All assays were performed at 30° C. using the Sunrise reader for microplates (TECAN). […] Additionally, samples contained either
(§2) a) 2.6*10^−5 M glutaminyl thiazolidine (open circles), or
(§3) Otherways, reactions were started by addition of a mixture of H-Gly-Pro-pNA and glutaminyl thiazolidine. Reactions were followed by monitoring the decrease in absorbance at 400 nm.

[3] = target: DPIV (Homo sapiens, UniProt P27487); test: DPIV activity assay, hydrolysis of H-Gly-Pro-pNA; conditions: 0.4 mM H-Gly-Pro-pNA, 0.65 mU DPIV, 0.04 M Hepes pH 7.6, 30° C.; 2.6*10^−5 M glutaminyl thiazolidine
Procedure: as §1, §2, §3

[4] = human QC catalyzed reaction, 30° C. in 0.05 M Tris-HCl pH 8.0, containing 5 mM EDTA
[5] = read-out: Ki-value, human QC catalyzed reaction, 30° C. in 0.05 M Tris-HCl pH 8.0, containing 5 mM EDTA
[6] = read-out: Ki value, QC inhibition by L-histamine and its two biological metabolites (Table 4)

Chain of human QC (Q16769 29-361): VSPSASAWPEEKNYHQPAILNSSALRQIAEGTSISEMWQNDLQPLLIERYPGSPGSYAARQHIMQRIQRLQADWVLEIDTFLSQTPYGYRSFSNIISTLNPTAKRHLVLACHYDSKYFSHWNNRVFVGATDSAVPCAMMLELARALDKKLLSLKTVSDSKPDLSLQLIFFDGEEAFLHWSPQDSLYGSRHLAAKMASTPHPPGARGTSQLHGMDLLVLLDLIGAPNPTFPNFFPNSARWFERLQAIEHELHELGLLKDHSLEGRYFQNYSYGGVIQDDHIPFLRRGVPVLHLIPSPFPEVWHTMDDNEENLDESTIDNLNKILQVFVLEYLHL
Chain of glutaminyl cyclase (QC) (Q16769 29-361): as above
Chain of DPIV (P27487 whole entry): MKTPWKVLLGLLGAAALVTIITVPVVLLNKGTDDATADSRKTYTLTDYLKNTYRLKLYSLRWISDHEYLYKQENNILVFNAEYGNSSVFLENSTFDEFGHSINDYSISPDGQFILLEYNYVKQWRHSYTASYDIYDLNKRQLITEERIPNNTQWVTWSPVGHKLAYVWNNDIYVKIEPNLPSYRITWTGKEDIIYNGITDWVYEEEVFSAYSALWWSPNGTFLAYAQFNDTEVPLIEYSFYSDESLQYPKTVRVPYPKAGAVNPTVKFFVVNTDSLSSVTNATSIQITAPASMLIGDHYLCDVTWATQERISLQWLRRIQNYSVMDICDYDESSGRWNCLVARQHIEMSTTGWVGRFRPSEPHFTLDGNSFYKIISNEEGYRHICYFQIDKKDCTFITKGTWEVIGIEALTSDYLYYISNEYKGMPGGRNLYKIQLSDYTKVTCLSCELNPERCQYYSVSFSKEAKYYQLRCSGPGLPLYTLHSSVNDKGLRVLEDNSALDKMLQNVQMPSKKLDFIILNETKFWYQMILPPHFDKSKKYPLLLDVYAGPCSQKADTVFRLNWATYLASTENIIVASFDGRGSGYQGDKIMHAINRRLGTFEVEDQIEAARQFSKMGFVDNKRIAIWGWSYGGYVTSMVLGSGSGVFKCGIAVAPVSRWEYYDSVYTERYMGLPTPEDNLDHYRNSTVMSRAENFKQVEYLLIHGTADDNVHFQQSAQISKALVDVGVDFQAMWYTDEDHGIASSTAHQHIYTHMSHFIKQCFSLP

`O=S(=O)(n1ccnc1)n1ccnc1` [1,1′-sulfonyldiimidazole] was tested, and the “Ki-value (mM)” value [1, 4] was “no inhibition”.

`O=C(Cn1ccnc1)c1ccccc1` [1-(2-oxo-2-phenyl-ethyl)-imidazole] showed a Ki [1, 5] of 184 ± 5 µM.

With `NCCCn1ccnc1` [1-(3-aminopropyl)-imidazole] the Ki [1, 5] was 410 ± 10 µM.

With `Cn1cnc(CCN)c1` [1-methyl-4-(β-aminoethyl)-imidazole] the “Ki value (mM)” value ([1]; QC inhibition by L-histamine and its two biological metabolites (Table 4)) was “n.i”.

Work on `Cn1ccnc1` [1-methylimidazole] yielded a Ki [1] of 30 ± 1 µM.

`c1ccc(-n2ccnc2)cc1` [1-phenylimidazole] was tested, and the “Ki-value (mM)” value [1, 4] was “no inhibition”.

`C=Cn1ccnc1` [1-vinylimidazole] was tested, and the Ki [1, 5] was 49 ± 2 µM.

For `COC(=O)[C@H](C)NC(=O)C1CCC(Cn2ccnc2)N1` (some centres unmarked) [2-[(5-imidazol-1-ylmethyl-pyrrolidine-2-carbonyl)-amino]-propionic acid methyl ester], the Ki [1] was 32.2 ± 0.7 µM.

For `Nc1nc2ccccc2[nH]1` [2-aminobenzimidazole], the Ki [1, 5] was 1800 ± 100 µM.

`Clc1nc2ccccc2[nH]1` [2-chioro-1H-benzimidazole] was tested, and the “Ki-value (mM)” value [1, 4] was “no inhibition”.

`CCc1nc(C)c[nH]1` [2-ethyl-4-methyl-imidazole] gave a Ki [1, 5] of 580 ± 40 µM.

Compound `Cc1nc2ccccc2[nH]1` [2-methyl-benzylimidazole] has a Ki [1, 5] of 165 ± 4 µM.

`Cc1c(C(=O)CCn2ccnc2)sc2ccccc12` [3-(1H-imidazol-1-yl)-1-(3-methylbenzo[b]thiophene-2-yl)propan-1-one] was tested, and the Ki [1] was 2.5 ± 0.1 µM.

`O=C1CNC(=S)N1CCCn1ccnc1` [3-[3-(1H-imidazol-1-yl)propyl]-2-thioxoimidazolidin-4-one] showed a Ki [1] of 0.41 ± 0.01 µM.

Compound `Cn1cncc1CCN` [3-methyl-4-(β-aminoethyl)-imidazole] has a Ki [1, 6] of 120 ± 4 µM.

In the case of `N#Cc1nc[nH]c1C#N` [4,5-dicyanoimidazole], the “Ki-value (mM)” value [1, 4] is reported as “no inhibition”.

`c1ccc(-c2nc[nH]c2-c2ccccc2)cc1` [4,5-diphenyl-imidazole] was tested, and the “Ki-value (mM)” value [1, 4] was “no inhibition”.

For `O=C(O)c1ccc(OCCn2ccnc2)cc1` [4-[2-(1H-imidazol-1-yl)-ethoxy]benzoic acid], the Ki [1] was 3.4 ± 0.1 µM.

`CCCC1C(=O)OCC1Cc1cncn1C` (centres unmarked) [4-[(1-methyl-1H-imidazol-5-yl)methyl]-3-propyldihydrofuran-2-(3H)-one] showed a Ki [1] of 6.7 ± 0.3 µM.

In the case of `NC(=O)c1[nH]cnc1N` [4-amino-imidazole-5-carbonic acid amide], the Ki [1, 5] is reported as 15500 ± 500 µM.

With `O=Cc1c[nH]cn1` [4-imidazole-carboxaldehyde] the Ki [1, 5] was 7600 ± 700 µM.

With `Cc1nc[nH]c1CO` [5-hydroxymethyl-4-methyl-imidazole] the Ki [1, 5] was 129 ± 5 µM.

With `O=C(Nc1ccccc1C(=O)NCCCn1ccnc1)c1ccc([N+](=O)[O-])o1` [5-nitro-2-[2-([{3-(1H-imidazol-1-yl-)propyl}amino]carbonyl)phenyl]furamide] the Ki [1] was 6.6 ± 0.4 µM.

With `c1ccn2cncc2c1` [Imidazo[1.5a]pyridine] the Ki [1] was 35.6 ± 0.5 µM.

For `NCCc1c[nH]cn1` [L-histamine], the Ki [1, 6] was 850 ± 40 µM and the Ki [1, 5] was 850 ± 40 µM.

For `NC(=O)[C@@H](N)Cc1c[nH]cn1` [L-histidinamide], the Ki [1, 5] was 560 ± 40 µM.

Work on `N[C@@H](Cc1c[nH]cn1)C(=O)O` [L-histidine] yielded a Ki [1, 5] of 4400 ± 200 µM.

For `N[C@H](CO)Cc1c[nH]cn1` [L-histidinol], the Ki [1, 5] was 1530 ± 120 µM.

In the case of `COC(=O)[C@@H](NC(=O)[C@@H](N)CCC(=O)Nn1ccnc1)C(C)C` [Methyl (2S)-2-{[(28)-2-amino-5-(1H-imidazol-1-ylamino)-5-oxopentanoyl]amino}-3-methylbutanoate], the Ki [1] is reported as 164 ± 4 µM.

With `S=C(NCCn1ccnc1)Nc1ccc(Cl)cc1` [N-(4-chlorophenyl)-N′-[2-(1H-imidazol-1-yl)ethyl]thiourea] the Ki [1] was 1.65 ± 0.07 µM.

Work on `C[Si](C)(C)n1ccnc1` [N-(trimethylsilyl)-imidazole] yielded a Ki [1, 5] of 167 ± 7 µM.

`CC(=O)n1ccnc1` [N-acetylimidazole] was tested, and the Ki [1, 5] was 107 ± 3 µM.

`O=C(c1ccccc1)n1ccnc1` [N-benzoylimidazole] showed a Ki [1, 5] of 174 ± 7 µM.

For `c1ccc2[nH]cnc2c1` [benzimidazole], the “reaction rate of H-Gly-Pro-pNA hydrolysis after addition of the QC inhibitor” value ([2]; case (c): 2.6*10^−5 M glutaminyl thiazolidine, 54 mU QC and 0.4 mM inhibitor) was “the reaction rate goes down as low as in case (a)”.

With `NC(=O)CC[C@H](N)C(=O)N1CCSC1` [glutaminyl thiazolidine] the “degradation by glutaminyl cyclase” value [2] was “degraded to the pyro-glutaminyl-thiazolidine”, the “half-life in the presence of QC” value [2] was “reduced” and the “inhibition of DPIV (hydrolysis of H-Gly-Pro-pNA)” value [3] was “competitive inhibition”.

For `COC(=O)c1c[nH]cn1` [imidazole-4-carbonic acid methylester], the Ki [1, 5] was 14500 ± 600 µM.

In the case of `O=C(C(=O)n1ccnc1)n1ccnc1` [oxalic acid dilmidazolidide], the Ki [1] is reported as 78 ± 2 µM.

For `O=C1CCC(C(=O)N2CCSC2)N1` (centres unmarked) [pyro-glutaminyl-thiazolidine], the “inhibition of DPIV (hydrolysis of H-Gly-Pro-pNA)” value [3] was “not active”.
